From PubChem BioAssay AID588780 (Sanford-Burnham Center for Chemical Genomics, 2011)
Activity calls are given as the source filed them.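 Rule for the calls: active = compounds whose fitted half-maximal concentration in the cell-protection dose series is at or below a set limit; inactive = the rest.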

test system: H9c2 cardiomyocytes, 2-deoxyglucose stress, ATP luminescence, 2 h; test: H9c2 cell survival under 2-deoxyglucose stress – uHTS hits, dose response (AID 588780)

SMILES	IC50
Cc1ccc(Nc2nc(N)[nH]c(=O)c2N=O)cc1	> 79 µM (inactive)
CC(Oc1ccc(F)cc1)C(=O)Nc1nc(-c2ccccn2)cs1 (stereo not drawn)	37.5 µM (inactive)
Cc1ccc(C)c(C(=O)Nc2cc(C)nn2-c2nc(C)cc(C)n2)c1	> 79 µM (inactive)
CC(=O)c1ccc(-c2cnc3c(NC=O)cc(-c4ccc(C(=O)NC5CC5)cc4)cn23)cc1	> 79 µM (inactive)
O=C(N/N=C/c1cccc2cccnc12)[C@H]1C[C@@H]1c1ccccc1	29.2 µM
COc1ccccc1NS(=O)(=O)c1cccc(C(=O)N/N=C/c2c(CO)cnc(C)c2O)c1	31.8 µM (inactive)
Cn1c(/C=N/NC(=O)c2ccccc2)nc2ccccc21	> 79 µM (inactive)
O=C(Nc1ccc2c(c1)OCO2)c1cnn2c(C(F)(F)F)cc(-c3ccco3)nc12	7.33 µM
COc1ccc(/C=N\NC(=O)c2c(C)nc3ccc(Br)cn23)cc1	> 79 µM (inactive)
Nc1ccc2nc(-c3cccs3)[nH]c2c1	> 79 µM (inactive)
O=c1[nH]c(NCc2ccccc2)nc2c1CCCC2	> 79 µM (inactive)
NC(=O)c1cccc(-c2coc3c(C(=O)NCCc4ccccc4)cccc23)c1	> 79 µM (inactive)
COc1cccc(-c2nnc(NC(=O)c3ccc(Cl)s3)o2)c1	> 79 µM (inactive)
Cc1ccc(C)c(NC(=O)C(Sc2ncnc3ccccc23)c2ccccc2)c1 (stereo not drawn)	> 79 µM (inactive)
COc1ccnc(Oc2ccc(F)cc2)c1C(=O)N/C=N/OCc1ccc(Cl)cc1Cl	12.3 µM
O=c1[nH]c2cc3c(cc2cc1CN(Cc1nnnn1CC1CCCO1)C1CCCCC1)OCO3 (stereo not drawn)	57.1 µM (inactive)
O=c1[nH]c2cc([N+](=O)[O-])ccc2c2ccccc12	> 79 µM (inactive)
CCN(CCO)c1ncnc2c1sc1nc(C(C)C)c3c(c12)CC(C)(C)OC3	> 79 µM (inactive)
CCn1c2ccccc2c2nc3cc(OC)c(OC)cc3nc21	> 79 µM (inactive)
O=C(Nc1cccc(Cl)c1)c1nc[nH]c1C(=O)NCCCCNC(=O)c1[nH]cnc1C(=O)Nc1cccc(Cl)c1	> 79 µM (inactive)
CC(=O)NC(CCc1ccc(Cl)c(Cl)c1)c1cccc(O)c(=O)c1 (stereo not drawn)	> 79 µM (inactive)
O=C(N/N=C/c1ccc2c(c1)OCO2)c1ccc(NC(=O)c2ccccc2Cl)cc1	16.2 µM
CCOC(=O)C1=NN(C(=O)c2ccco2)C2(CC2)C1	> 79 µM (inactive)
Cn1c(C(=O)NCCc2ccsc2)cc2c(=O)n(C)c3ccccc3c21	> 79 µM (inactive)
COc1cc(OC)cc(C(=O)NNC(=O)c2ccccn2)c1	> 79 µM (inactive)

SMILES	IC50
CN(C)C(=O)CSc1nc2ccccc2c(=O)[nH]1	> 79 µM (inactive)
CC(C)(C)OC(=O)C[C@H]1C/C=C\C[C@H](CC(=O)N[C@H](CO)Cc2ccccc2)C(=O)N[C@H](Cc2ccccc2)COC1=O	20.5 µM
COc1ccc(C(=O)COC(=O)c2ccc([N+](=O)[O-])s2)cc1OC	> 79 µM (inactive)
COc1ccc(CC(=O)N(Cc2ccccc2)c2ccccc2)cc1S(=O)(=O)N1CCOCC1	> 79 µM (inactive)
CC1(C)Cc2c(c(N3CCOCC3)nc3sc4c(NN)ncnc4c23)CS1	> 79 µM (inactive)
COC(=O)c1cc2c(-c3ccccc3)cc3ccccn3c-2c1C(=O)OC	13 µM
Cc1ccc2c(C)nc(Nc3nc(CSc4nc5ccccc5[nH]4)cc(=O)[nH]3)nc2c1	> 79 µM (inactive)
CCOC(=O)Cc1csc(SCc2cc(=O)oc3cc(O)ccc23)n1	51.9 µM (inactive)
c1ccc(N2CCOCC2)c(Nc2nc3ccccc3n3cnnc23)c1	23.4 µM
CCCN1C(=O)c2cc(C(=O)Nc3cccc(C(C)=O)c3)ccc2C1Nc1cccc(C(C)=O)c1 (stereo not drawn)	11.4 µM
O=C(COC(=O)c1ccc([N+](=O)[O-])o1)Nc1ccc(N2CCOCC2)cc1	> 79 µM (inactive)
N#CC(c1nc2ccccc2nc1N1CCCC1)S(=O)(=O)c1cccs1 (stereo not drawn)	34.1 µM (inactive)
COc1ccc(C=NNc2nc3c([nH]2)c(=O)n(C)c(=O)n3C)cc1	> 79 µM (inactive)
COc1cc2c(C#CCCO)c(-c3ccsc3)oc(=O)c2cc1OC	> 79 µM (inactive)
N#C/C(=C\Nc1ccc2c(c1)OCCO2)c1nc2ccccc2[nH]1	> 79 µM (inactive)
COc1ccc(OC)c(C2CC(=O)c3c([nH]c(C(=O)OCC4CCCO4)c3C)C2)c1 (stereo not drawn)	> 79 µM (inactive)
COc1cc(OC)cc(-c2cc3nc(C)c(CCC(=O)Nc4nc(C)cs4)c(C)n3n2)c1	> 79 µM (inactive)
COC(=O)N1C(=O)[C@](c2ccccc2)(C2CCCCC2)N1C(=O)OC	25.4 µM
Oc1ccc2oc3c(c2c1C=NCc1ccncc1)CCCC3	> 79 µM (inactive)
COc1cc(-c2cc(NC(C)=O)c3ncc(-c4cc(OC)c(OC)c(OC)c4)n3c2)cc(OC)c1OC	5.28 µM
COc1cc2ccccc2cc1C(=O)NNC(=O)c1ccccc1O	> 79 µM (inactive)
CCOc1cc(NC(=O)C2CC2)c(OCC)cc1NC(=O)c1ccccn1	> 79 µM (inactive)
CC1CCN(C(=O)COC(=O)c2n[nH]c(=O)c3ccccc23)CC1	47.8 µM (inactive)
Cc1nc2c(c(=O)n1CCC1=CCCCC1)c1nc3ccccc3nc1n2/N=C/c1ccccc1	11.7 µM
NNC(=O)c1cc2ccccc2cc1O	> 79 µM (inactive)

SMILES	IC50
Brc1ccc(-c2nn3c(-c4ccccn4)nnc3s2)o1	52.8 µM (inactive)
O=C(CSc1nnc(-c2cccnc2)n1Cc1ccco1)c1ccccc1	> 79 µM (inactive)
Cc1noc(C)c1Cn1nc(C(=O)O)c2ccccc2c1=O	> 79 µM (inactive)
COc1ccc(C2CC(c3cccs3)n3nc(N)nc3N2)cc1 (stereo not drawn)	> 79 µM (inactive)
CC(Oc1ccc(Br)cc1)C(=O)Nc1nc(-c2ccccn2)cs1 (stereo not drawn)	> 79 µM (inactive)
C/C(=N/NC(=O)c1cccs1)c1cccc(NC(=O)C2CC2)c1	> 79 µM (inactive)
Oc1ccc(Br)cc1C=Nc1ccc2[nH]ncc2c1	> 79 µM (inactive)
COC(=O)c1ccc(N)c(N=CC2=C(O)CC(C)(C)CC2=O)c1	10.8 µM
COc1ccc(-c2nnc(NC(=O)c3ccc(F)cc3)o2)cc1	> 79 µM (inactive)
COc1ccc2cc3cc(C(=O)NCCc4ccc(OC)c(OC)c4)oc3nc2c1	7.71 µM
O=C(/C=C/NNC(=O)c1ccccc1)c1ccc(Br)cc1	> 79 µM (inactive)
c1ccc(CN2CCN(CCCNc3ccc4nnc(-c5ccccc5)n4n3)CC2)cc1	13.8 µM
O=C(N/N=C/c1ccncc1)c1ccc(COc2cccc3cccnc23)cc1	> 79 µM (inactive)
N#Cc1ccccc1S(=O)(=O)N1CCN(c2nc(-c3cccnc3)nc3ccccc23)CC1	> 79 µM (inactive)
COCCCNC(=O)/C(C#N)=C1\N=C(NC(=O)c2cccs2)c2ccccc21	> 79 µM (inactive)
Nc1c(C(=O)N/N=C/c2cccnc2)oc2nc(-c3ccccc3)cc(-c3ccco3)c12	> 79 µM (inactive)
CC(=O)c1cccc(Nc2nc3ccccc3n3cnnc23)c1	> 79 µM (inactive)
COc1ccc2[nH]c(=O)c(CNc3ccc(C)c(C)c3)cc2c1	49.8 µM (inactive)
COc1cccc(N2CC(C(=O)NCc3n[nH]c(=O)c4ccccc34)CC2=O)c1 (stereo not drawn)	> 79 µM (inactive)
COc1ccc(N(C(=O)c2cccc([N+](=O)[O-])c2)S(=O)(=O)c2cccs2)cc1	13.4 µM
COc1cc(CCNc2ccc3nnc(-c4ccccc4)n3n2)cc(OC)c1OC	23.9 µM
O=C(Nc1cccc(-c2nc3cccnc3s2)c1)c1ccco1	> 79 µM (inactive)
CC(=O)CCc1ccc(Oc2nc(-c3cccnc3)nc3ccccc23)cc1	> 79 µM (inactive)
COc1ccc(-c2cc3nc(-c4ccccc4)cc(N4CCN(C(=O)c5ccoc5)CC4)n3n2)cc1	6.39 µM
CCN(CC)C(=O)c1[nH]cnc1C(=O)NCC(=O)OCc1ccccc1	> 79 µM (inactive)

SMILES	IC50
COc1cc(-c2cc(C(=O)NCc3ccco3)c3ccccc3n2)cc(OC)c1OC	16.6 µM
COc1cc(-c2cc(NC(C)=O)c3ncc(-c4ccccc4)n3c2)cc(OC)c1OC	> 79 µM (inactive)
CCOc1ccc(C(=O)Nc2cccc(-c3nc4cccnc4o3)c2)cc1Cl	32.2 µM (inactive)
O=C(NCc1ccco1)c1cc(-c2cccnc2)nc2ccc(Cl)cc12	> 79 µM (inactive)
O=c1[nH]c2cccnc2c2ccsc12	> 79 µM (inactive)
COc1c(C)cc(Br)cc1C(=O)Nc1cccc(-c2nc3ncccc3o2)c1	> 79 µM (inactive)
Cc1cc(Nc2ccccc2C(=O)O)nc2nc3ccccc3c(=O)n12	> 79 µM (inactive)
COc1cc(C(=O)Nc2ccc(NC(=O)c3ccco3)nc2)cc(OC)c1OC	53.5 µM (inactive)
O=C(c1cc(-c2cccnc2)nc2ccc(Br)cc12)N1CCN(c2ncccn2)CC1	9.44 µM
CC(C)(C)C(=O)Nc1cccc(-c2nnc(-c3cccc(NC(=O)C(C)(C)C)c3)o2)c1	> 79 µM (inactive)
O=C(COC(=O)Cn1[nH]c(=O)c2ccccc2c1=O)NNC(=O)c1ccccc1	> 79 µM (inactive)
Cc1ccc(-c2n[nH]c(=O)c3ccccc23)cc1S(=O)(=O)Nc1ccccc1	> 79 µM (inactive)
COc1ccc(N(CC(=O)NCCSc2ccccc2)S(=O)(=O)c2ccccc2)c(OC)c1	12.3 µM
COc1cc(-c2cc(C(=O)Nc3ccccc3N3CCOCC3)c3ccccc3n2)cc(OC)c1OC	> 79 µM (inactive)
COc1ccc(CNn2c(-c3cccs3)nc3ccccc3c2=O)cc1OC	11.8 µM
Cn1c2c(c(=O)n(C)c1=O)C(c1ccc(Br)cc1)Nc1ccccc1O2 (stereo not drawn)	> 79 µM (inactive)
Cc1c(O)c(CN2CCCCC2)cc2c1oc(=O)c1ccccc12	> 79 µM (inactive)
COc1ccc(-c2cc(NC(C)=O)c3ncc(-c4ccc(OC)c(OC)c4)n3c2)cc1OC	> 79 µM (inactive)
NC(=O)c1ccsc1NC(=O)COC(=O)Cc1n[nH]c(=O)c2ccccc12	> 79 µM (inactive)
C/C(=N\NC(=O)c1ccccc1-n1cccc1)c1ccccn1	> 79 µM (inactive)
COc1ccc(-c2cc(-c3nnc(COC(=O)C4CC4C)o3)c3ccccc3n2)cc1OC (stereo not drawn)	> 79 µM (inactive)
O=C(Nc1cc(=O)c2ccccc2o1)N1CCCCC1	> 79 µM (inactive)
O=C(O)c1nn(CCOc2ccccc2F)c(=O)c2ccccc12	25.7 µM
